Patent US12550899B2, “Topramezone derivative and use thereof” (priority 2023, dated 2026)

Legend:
Assay type in all cases: in vivo
[1] = test system: test weeds (grassy weeds, sedge, broadleaf weeds); experiment: Laboratory bioactivity efficacy test 2.1, symptoms on the test weeds; conditions: test 2.1 weeds
From the text: (§1) Refer to the “Pesticides guidelines for laboratory bioactivity tests Part 4: Foliar spray application test for herbicide activity, NY/T 1155.4-2006”.
(§2) • grassy weeds: Setaria viridis, Chloris virgata; • sedge: Cyperus rotundus; • Broadleaf weeds: Amaranthus retroflexus, Chenopodium album, Acalypha australis, Commelina communis, Convolvulus arvensis, Cirsium setosum, and Eclipta prostrata. 2.1.3 Test Conditions
(§3) The soil used for the test was a mixture of surface 20 cm loam and vermiculite, mixed in a volume ratio of 3:1 to form a culture soil. The test corn was cultured in a glass greenhouse with a temperature ranging from 25° C. to 35° C. and under natural light.
(§4) A measured quantity of weed seeds were sown in plastic pots with a diameter of 9 cm, and covered with 1-2 mm of soil. The ports were then placed in enamel trays filled with water, and watered by bottom irrigation. After sowing, the pots were transferred to the glass greenhouse for cultivation and growth.
(§5) Five dosages were set for Compound I, Compound II and the control herbicide Topramezone, which were 3.75, 7.5, 15, 30 and 60 grams of active ingredient per hectare respectively. In addition, a blank control was also prepared.
(§6) The required amount of the herbicide was accurately measured out, an appropriate amount of emulsifier and organic solvent were added to dissolve the herbicide, and then a certain amount of water was added therein until the herbicide was diluted to the required dosage by using the serial dilution method for standby.
(§7) The fresh weight of each treatment was surveyed 14 days after the application of the herbicide. The fresh weight control efficacy was calculated according to the following formula: fresh weight control efficacy (%)=(control fresh weight−treatment fresh weight)/control fresh weight×100.

[2] = test system: Corn (Zhengdan 958); experiment: Corn safety laboratory test; conditions: for Fresh Weight / Fresh Weight Control Efficacy: 15 days after application
Procedure: (§8) Three corn varieties: Zhengdan 958, white waxy corn, and sweet corn (Runhua sweet corn).
as §3
(§9) A measured quantity of corn seeds were sown in plastic pots with a diameter of 15 cm, and covered with 2-3 cm of soil. The ports were then placed in enamel trays filled with water, and watered by bottom irrigation. After sowing, the pots were transferred to the glass greenhouse for cultivation and growth.
(§10) In the corn safety test, dosages were set for the two Compounds (Compound I of the present invention and Compound II of the present invention) and the control herbicide Topramezone, which were 15, 30, 60, and 120 grams of active ingredient per hectare respectively. In addition, a blank control was also prepared.
as §6
(§11) Corn stems and leaves were uniformly sprayed at the 3-4-leaf stage.
(§12) The ASS-3 automatic control spraying system with a fan-shaped nozzle was used indoors for herbicide application. Depending on the nozzle pressure and flow rate, 50 mL of herbicide solution was applied to a spraying area of 1.1 m^2 (which was equivalent to the water consumption of 30 L per mu). The system's operating speed was calibrated. The plastic pots to be treated were arranged evenly on the spraying platform to ensure uniform treatment. The spray pressure was set to 0.35 MPa, and the flow rate of the fan-shaped nozzle was set to 800 mL/min. The spraying was carried out in sequence from the low dosage to the high dosage. Each treatment was repeated three times.
(§13) The herbicide was applied once. After spraying, the pots were air-dried for one day and then placed in the glass greenhouse. Regular watering was conducted to maintain moisture.
(§14) After application of the herbicide, whether there were any phytotoxic symptoms in the corn for each treatment was recorded. If yes, the phytotoxicity symptoms and grade were recorded in detail. 15 days after application, the fresh weight of the corn in each treatment was measured and the fresh weight control efficacy was calculated to assess the safety of the herbicide on the corn.
(§15) The treatment results were calculated according to the following formula: fresh weight control efficacy (%)=(control fresh weight−treatment fresh weight)/control fresh weight×100.

[3] = test system: Corn (Sweet Corn); experiment: Corn safety laboratory test; conditions: for Fresh Weight / Fresh Weight Control Efficacy: 15 days after application
Procedure: as §8, §3, §9, §10, §6, §11, §12, §13, §14, §15

[4] = test system: Corn (White Waxy Corn); experiment: Corn safety laboratory test; conditions: for Fresh Weight / Fresh Weight Control Efficacy: 15 days after application
Procedure: as §8, §3, §9, §10, §6, §11, §12, §13, §14, §15

[5] = test system: Chenopodium album; experiment: Laboratory bioactivity efficacy test 2.1 (foliar spray); conditions: fresh weight control efficacy 14 days after application
From the text: as §1, §2, §3, §4, §5, §6, §7
(§16) A DPS statistical software was used to conduct regression analysis on the logarithmic values of the herbicide dosage and the probit values of the corn fresh weight control efficacy, and the correlation coefficient, GR50, GR90, and the 95% confidence interval were calculated.

[6] = test system: Cirsium setosum; experiment: as above; conditions: fresh weight control efficacy 14 days after application
From the text: as §1, §2, §3, §4, §5, §6, §7, §16

[7] = test system: Amaranthus retroflexus; experiment: as above; conditions: fresh weight control efficacy 14 days after application
From the text: as §1, §2, §3, §4, §5, §6, §7, §16

[8] = test system: Commelina communis; experiment: as above; conditions: fresh weight control efficacy 14 days after application
From the text: as §1, §2, §3, §4, §5, §6, §7, §16

[9] = test system: Acalypha australis; experiment: as above; conditions: fresh weight control efficacy 14 days after application
From the text: as §1, §2, §3, §4, §5, §6, §7, §16

[10] = test system: Convolvulus arvensis; experiment: as above; conditions: fresh weight control efficacy 14 days after application
From the text: as §1, §2, §3, §4, §5, §6, §7, §16

[11] = test system: Eclipta prostrata; experiment: as above; conditions: fresh weight control efficacy 14 days after application
From the text: as §1, §2, §3, §4, §5, §6, §7, §16

[12] = test system: Chloris virgata; experiment: as above; conditions: fresh weight control efficacy 14 days after application
From the text: as §1, §2, §3, §4, §5, §6, §7, §16

[13] = test system: Cyperus rotundus; experiment: as above; conditions: fresh weight control efficacy 14 days after application
From the text: as §1, §2, §3, §4, §5, §6, §7, §16

[14] = test system: Setaria viridis; experiment: as above; conditions: fresh weight control efficacy 14 days after application
From the text: as §1, §2, §3, §4, §5, §6, §7, §16

[15] = Zhengdan 958, dosage 15 g a.i./ha
[16] = Zhengdan 958, dosage 30 g a.i./ha
[17] = Zhengdan 958, dosage 60 g a.i./ha
[18] = Zhengdan 958, dosage 120 g a.i./ha
[19] = Sweet Corn, dosage 15 g a.i./ha
[20] = Sweet Corn, dosage 30 g a.i./ha
[21] = Sweet Corn, dosage 60 g a.i./ha
[22] = Sweet Corn, dosage 120 g a.i./ha
[23] = White Waxy Corn, dosage 15 g a.i./ha
[24] = White Waxy Corn, dosage 30 g a.i./ha
[25] = White Waxy Corn, dosage 60 g a.i./ha
[26] = White Waxy Corn, dosage 120 g a.i./ha

## Cc1c(C(=O)c2cnn(C)c2OC(=O)C(C)(C)C)ccc(S(C)(=O)=O)c1C1=NOCC1 [Compound II, 4-(3-(4,5-dihydroisoxazol-3-yl)-2-methyl-4-(methylsulfonyl)benzoyl)-1-methyl-1H-pyrazol-5-yl pivalate]
[1]
  Symptoms on the test weeds: clear pesticidal efficacy symptoms
[2]; in vivo
  Corn Growth Status: Good, Normal Growth
  Growth of corn / phytotoxicity (in words): normal, without causing any phytotoxicity
[3]; in vivo
  Corn Growth Status: Good, Normal Growth
  Safety to corn (in words): safe
[4]; in vivo
  Corn Growth Status: Good, Normal Growth
  Safety to corn (in words): safe
[5]
  GR50: 2.83 g a.i./ha
  GR90: 11.74 g a.i./ha
[6]
  GR50: 15.14 g a.i./ha
  GR90: 48.92 g a.i./ha
[7]
  GR50: 4.64 g a.i./ha
  GR90: 11.19 g a.i./ha
[8]
  GR50: 13.73 g a.i./ha
  GR90: 39.85 g a.i./ha
[9]
  GR50: 6.04 g a.i./ha
  GR90: 16.46 g a.i./ha
[10]
  GR50: 7.31 g a.i./ha
  GR90: 58.43 g a.i./ha
[11]
  GR50: 4.67 g a.i./ha
  GR90: 23.27 g a.i./ha
[12]
  GR50: 4.41 g a.i./ha
  GR90: 15.22 g a.i./ha
[13]
  GR50: 15.68 g a.i./ha
  GR90: 39.11 g a.i./ha
[14]
  GR50: 6.77 g a.i./ha
  GR90: 19.04 g a.i./ha

## Cc1c(C(=O)c2cnn(C)c2O)ccc(S(C)(=O)=O)c1C1=NOCC1 [Topramezone]
[1]
  Symptoms on the test weeds: clear pesticidal efficacy symptoms
[2]; Zhengdan 958, all dosages
  Growth of corn / phytotoxicity (in words): normal
[2]; [15]
  Corn Growth Status: Good, Normal Growth
  Fresh Weight: 15.2 g
  Fresh Weight Control Efficacy: −0.5%
[2]; [16]
  Corn Growth Status: Good, Normal Growth
  Fresh Weight: 14.9 g
  Fresh Weight Control Efficacy: 1.8%
[2]; [17]
  Corn Growth Status: Good, Normal Growth
  Fresh Weight: 15.2 g
  Fresh Weight Control Efficacy: −0.5%
[2]; [18]
  Corn Growth Status: Good, Normal Growth
  Fresh Weight: 15.6 g
  Fresh Weight Control Efficacy: −2.8%
[3]; [19]
  Corn Growth Status: Good, Normal Growth
  Fresh Weight: 7.6 g
  Fresh Weight Control Efficacy: −2.0%
[3]; [20]
  Corn Growth Status: Good, Normal Growth
  Fresh Weight: 7.4 g
  Fresh Weight Control Efficacy: −0.3%
[3]; [21]
  Corn Growth Status: Good, Normal Growth
  Fresh Weight: 7.4 g
  Fresh Weight Control Efficacy: −0.3%
[3]; [22]
  Corn Growth Status: Good, Normal Growth
  Fresh Weight: 7.3 g
  Fresh Weight Control Efficacy: 1.0%
[3]; sweet corn, all dosages
  Safety to corn (in words): safe
[4]; [23]
  Corn Growth Status: Good, Normal Growth
  Fresh Weight: 9.7 g
  Fresh Weight Control Efficacy: −2.7%
[4]; [24]
  Corn Growth Status: Good, Normal Growth
  Fresh Weight: 9.4 g
  Fresh Weight Control Efficacy: 0.3%
[4]; [25]
  Corn Growth Status: Good, Normal Growth
  Fresh Weight: 9.5 g
  Fresh Weight Control Efficacy: −0.3%
[4]; [26]
  Corn Growth Status: Good, Normal Growth
  Fresh Weight: 9.0 g
  Fresh Weight Control Efficacy: 4.5%
[4]; white waxy corn, highest dosage, 120 grams of active ingredient per hectare
  Growth of corn / phytotoxicity (in words): normal, without causing any phytotoxicity
[5]
  GR50: 3.22 g a.i./ha
  GR90: 12.76 g a.i./ha
[6]
  GR50: 15.89 g a.i./ha
  GR90: 49.41 g a.i./ha
[7]
  GR50: 4.05 g a.i./ha
  GR90: 11.29 g a.i./ha
[8]
  GR50: 14.38 g a.i./ha
  GR90: 40.29 g a.i./ha
[9]
  GR50: 5.27 g a.i./ha
  GR90: 16.92 g a.i./ha
[10]
  GR50: 4.63 g a.i./ha
  GR90: 66.46 g a.i./ha
[11]
  GR50: 6.33 g a.i./ha
  GR90: 23.72 g a.i./ha
[12]
  GR50: 3.33 g a.i./ha
  GR90: 15.81 g a.i./ha
[13]
  GR50: 16.11 g a.i./ha
  GR90: 39.22 g a.i./ha
[14]
  GR50: 6.72 g a.i./ha
  GR90: 19.16 g a.i./ha
